Laboratory results taken from paper PMC10525132, “Potent Antioxidant and Anti-Tyrosinase Activity of Butein and Homobutein Probed by Molecular Kinetic and Mechanistic Studies” (Antioxidants, 2023).

Columns and labels:
[1] = Inhibited autoxidation of methyl linoleate in Triton X-100 micelles (O2 uptake kinetics); conditions: for n (stoichiometric factor of peroxyl radical trapping): MeLin/Triton X-100 micelles
Procedure: Autoxidation studies were performed as previously described, with slight modifications. In a typical experiment, 2.5 mL of air-saturated buffered (PBS, 50 mM, pH 7.4) aqueous dispersion of MeLin (final concentration 2.74 mM) in Triton™ X-100 (final concentration 16 mM) micelles were prepared by vortex mixing. A fresh stock solution of AAPH was added (final concentration 2.5 mM), immediately followed by addition (5–30 μL) of a stock solution of the antioxidant in acetonitrile (final concentration of 1–20 μM) and by additional vortex mixing (5 s). The mixture was sealed in a 2 mL glass vial provided with a PTFE-coated stirring bar and capped with the O2 sensor. The sample was equilibrated at 37 °C in a thermostatted bath equipped with a sealed magnetic stirrer, and oxygen concentration was monitored with time as previously described. Oxygen consumption in the absence of antioxidants was compared with that recorded in the presence of butein, homobutein, or α-tocopherol (α-TOH) as the reference antioxidant. […]. The stoichiometric factor n was determined from the length of the inhibited period τ by Equation (3). The rate of initiation Ri was determined in preliminary experiments using α-TOH as the inhibitor (n = 2) by Equation (3). (1) −d[O2]/dt=kp[RH]Ri/nkinh[AH]+Ri (2) R0/Rinh−Rinh/R0=nkinh[AH]/2ktRi (3) n=Riτ/[AH]
To study the antioxidant activity of butein and homobutein on quantitative grounds, we performed inhibited autoxidation studies using biomimetic neutral micelles of methyl linoleate (MeLin) in aqueous Triton™ X-100 (with 50 mM PBS, pH 7.4, 37 °C), since it is a well-validated model we and others used in previous studies. The reaction kinetics was followed by monitoring oxygen consumption via miniaturized NIR-fluorescence-quenching O2 probes, according to a previously validated protocol, both in the absence and in the presence of different concentrations of butein or homobutein. The reaction was initiated thermally in the aqueous phase by the controlled decomposition of the azo compound AAPH so as to clearly distinguish the chain-breaking mechanism from other efficacies based on interference with the initiation process (e.g., the Fenton reaction by metal chelation) and α-TOH was used as the reference antioxidant.

[2] = target: mTYR (Agaricus bisporus, UniProt C7FF04); test: Stability toward air and mTYR, decay of concentration by UV-Vis; conditions: air-saturated PBS pH 6.8, 30 °C, 7 U/ml mTYR, 0.05 and 0.1 mM
mTYR (Agaricus bisporus, UniProt C7FF04), sequence (C7FF04 1-392): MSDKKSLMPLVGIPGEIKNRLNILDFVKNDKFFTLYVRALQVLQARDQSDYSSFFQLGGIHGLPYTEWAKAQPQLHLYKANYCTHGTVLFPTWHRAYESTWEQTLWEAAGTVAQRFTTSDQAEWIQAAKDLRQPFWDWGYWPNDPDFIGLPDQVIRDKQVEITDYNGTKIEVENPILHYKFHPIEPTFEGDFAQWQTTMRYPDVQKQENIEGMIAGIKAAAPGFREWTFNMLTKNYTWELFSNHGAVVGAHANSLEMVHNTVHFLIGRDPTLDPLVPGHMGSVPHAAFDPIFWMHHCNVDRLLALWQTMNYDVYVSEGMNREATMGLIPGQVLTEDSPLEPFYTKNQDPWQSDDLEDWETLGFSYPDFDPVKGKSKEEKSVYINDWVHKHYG

[3] = test system: mTYR; test: Stability toward air and mTYR, oxygen consumption; conditions: 0.1 mM, pH 6.8, 30 °C, axes [O2] M vs Time / s
[4] = Radical equilibration EPR (ReqEPR) for the O-H bond dissociation enthalpy; assay type: physicochemical
Procedure: Deoxygenated acetonitrile solutions containing the phenols (0.01–0.001 M) and di-tert-butyl peroxide (10% v/v) were sealed under nitrogen in a 2 mm ID suprasil quartz EPR tube. The sample was inserted in the thermostatted (30 °C) cavity of an X-band EPR spectrometer and photolyzed with a mercury–xenon lamp (240–400 nm, max 4500 mW/cm^2). Spectra were recorded with the following settings: modulation amplitude 0.2–1 Gauss, sweep width 30–60 Gauss, modulation frequency 100 kHz, frequency 9.76 GHz, sweep time 60 s, and microwave power 0.1–1 mW. Measured g-factors were corrected with respect to that of TEMPO (g = 2.0064) and of DPPH radical. In ReqEPR experiments, mixtures of TBP and butein were analyzed to obtain the molar ratio of the two equilibrating radicals by comparison of the digitized experimental spectra with computer-simulated ones, as previously described. This afforded the equilibrium constant, Keq. Different irradiation power levels (20% to 100%) and different ratios of the two phenols were tested to guarantee that the two species were at equilibrium.
The reactivity of (phenolic) chain-breaking antioxidants toward formal hydrogen atom transfer (HAT) to a radical such as peroxyl radicals is dictated by the strength of the phenolic O-H bond being broken, i.e., by its bond dissociation enthalpy (BDEOH), and by the steric hindrance in ortho position to the reactive OH [40, 41]. Indeed, there are well-established Evans–Polanyi linear free-energy correlations between the BDEOH and the inhibition rate constant kinh for phenolic antioxidants. One very accurate method to measure the BDEOH is via radical equilibration experiments using electron paramagnetic resonance spectroscopy, the ReqEPR technique. It consists of photolyzing the “unknown” phenol to be studied (^UPhOH) in a mixture with a reference phenol (^RPhOH) in the cavity of the EPR spectrometer with the addition of a peroxide (e.g., di-tert-butylperoxide) as a photochemical initiator. Analysis and deconvolution of the EPR spectrum containing both equilibrating radical species affords the equilibrium constant Keq (see Figure 3), which in turn allows determining the ∆G° of equilibration. Since it has been shown that ∆S° is negligible for such an equilibrium, this affords the BDEOH of ^UPhOH if the value is known for ^RPhOH (Figure 3A).
To convert this value into a gas-phase equivalent, it is necessary to correct for the effect of the solvent, which increases the apparent BDE value by H-bonding to the phenols (see Figure 3B). Such solvent effects can be accounted for quantitatively, as detailed in Figure 3B, by using Abraham’s solvatochromic parameters α2^H and β2^H, describing, respectively, the H-bond donating ability of the phenol and the H-bond accepting ability of the solvent. Considering that the solvent effect is negligible for TBP due to steric hindrance by the t-butyl groups in ortho [40], that α2^H for catechol is 0.73 and β2^H for acetonitrile is 0.39 [42], the DBE measured in acetonitrile must be downscaled by −1.4 kcal/mol to afford BDEOH = 78.4 ± 0.2 kcal/mol for butein in apolar solvent/gas-phase.

[5] = AAPH (2.5 mM) initiated autoxidation of MeLin/Triton X-100 micelles, 37 °C, pH 7.4
[6] = MeLin in Triton X-100 micelles, pH 7.4, 37 °C

Structure (SMILES) | kinh (inhibition rate constant) [1, 5] | kinh (inhibition rate constant) [1, 6] | kinh (inhibition rate constant) ([1]; MeLin in Triton X-100 micelles, pH 7.4, 37 °C, listed as butein) [M⁻¹ s⁻¹] | n (stoichiometric factor of peroxyl radical trapping) ([1]; 37 °C, pH 7.4) | n (stoichiometric factor of peroxyl radical trapping) ([1]; 37 °C, pH 7.4, listed as butein) | behaviour as substrate of mTYR [2] | oxygen consumption, zero order regression slope b[1] ([3]; with tyrosinase 7 U/ml) | oxygen consumption, zero order regression slope b[1] ([3]; without enzyme) | BDEOH ([4]; ReqEPR vs TBP, corrected for solvent to apolar solvent/gas-phase) [kcal/mol] | BDEOH ([4]; ReqEPR vs TBP, corrected for solvent to apolar solvent/gas-phase, listed as butein) [kcal/mol] | BDEOH higher compared to α-TOH ([4]; difference to α-TOH) [kJ/mol] | Keq (radical equilibration with TBP) ([4]; in acetonitrile at 298 K) | BDEOH ([4]; in acetonitrile at 298 K, not corrected for solvent) [kcal/mol] | BDEOH of any OH group in A ring ([4]; suggested from structure) [kJ/mol] | kinh (inhibition rate constant) ([1]; MeLin in Triton X-100 micelles, pH 7.4, 37 °C, listed as homobutein) [M⁻¹ s⁻¹] | BDEOH ([4]; estimated from the value for butein by additive contribution of substituents) | BDEOH ([4]; estimated from the value for butein by additive contribution of substituents, listed as HB) [kcal/mol] | BDEOH ([4]; estimated from the value for butein by additive contribution of substituents, listed as homobutein)
O=C(/C=C/c1ccc(O)c(O)c1)c1ccc(O)cc1O [Butein, (E)-1-(2,4-dihydroxyphenyl)-3-(3,4-dihydroxyphenyl)prop-2-en-1-one] | 29.8 ± 9.2 10^3 M^−1s^−1 | (3.0 ± 0.9) × 10^4 M^−1s^−1 | 30000 | 3.7 ± 1.1 | 3.7 | not a significant substrate | -2.789e-9 | -1.989e-9 | 78.4 ± 0.2 | 78.4 | 5.44 | 1.64 ± 0.63 | 79.8 ± 0.2 | > 360 |  |  |  | 
COc1cc(/C=C/C(=O)c2ccc(O)cc2O)ccc1O [Homobutein, (E)-1-(2,4-dihydroxyphenyl)-3-(4-hydroxy-3-methoxyphenyl)prop-2-en-1-one] | 2.8 ± 0.9 10^3 M^−1s^−1 | (2.8 ± 0.9) × 10^3 M^−1s^−1 |  |  |  | not a significant substrate | -3.664e-9 | -2.859e-9 |  |  |  |  |  |  | 2800 | 82.6 ^1 kcal/mol | 82.6 | ~ 82.6 kcal/mol
